From patent publication US10072026B2, “Crystalline form of 3-((1R,3s,5S)-3-((7-((5-methyl-1H-pyrazol-3-yl)amino)-1,6-naphthyridin-5-yl)amino)-8-azabicyclo[3.2.1]octan-8-yl)propanenitrile” (priority 2015, dated 2018)

Legend:
[1] = system: IL-4 induced STAT6 phosphorylation in THP-1 human monocytic cells; test: Cellular JAK potency assay, THP-1
JAK3 = JAK3 (Homo sapiens (Human), UniProt P52333); test: LanthaScreen JAK biochemical assay (JAK3)
JAK2 = JAK2 (Homo sapiens (Human), UniProt O60674); test: LanthaScreen JAK biochemical assay (JAK2); conditions: for Ki: read-out: JAK 2 (pKi) (converted)
JAK1 = JAK1 (Homo sapiens (Human), UniProt P23458); test: LanthaScreen JAK biochemical assay (JAK1); conditions: for Ki: read-out: JAK 1 (pKi) (converted)
[2] = system: IL-13 induced STAT6 phosphorylation in BEAS-2B human lung epithelial cells; test: AlphaScreen cellular JAK potency assay, BEAS-2B
Tyk2 = Tyk2 (Homo sapiens (Human), UniProt P29597); test: LanthaScreen JAK biochemical assay (Tyk2); conditions: for Ki: read-out: Tyk 2 (pKi) (converted)
[3] = IL-4 induced STAT6 phosphorylation, THP-1 cells
[4] = Homo sapiens, THP-1, read-out: THP-1 IL4 pIC50 (converted)
[5] = Homo sapiens, BEAS-2B, read-out: BEAS2B pIC50 (converted)
[6] = THP-1 cells, IL-4 induced STAT6 phosphorylation
[7] = BEAS-2B cells, IL-13 induced STAT6 phosphorylation

JAK2, sequence (O60674 whole entry): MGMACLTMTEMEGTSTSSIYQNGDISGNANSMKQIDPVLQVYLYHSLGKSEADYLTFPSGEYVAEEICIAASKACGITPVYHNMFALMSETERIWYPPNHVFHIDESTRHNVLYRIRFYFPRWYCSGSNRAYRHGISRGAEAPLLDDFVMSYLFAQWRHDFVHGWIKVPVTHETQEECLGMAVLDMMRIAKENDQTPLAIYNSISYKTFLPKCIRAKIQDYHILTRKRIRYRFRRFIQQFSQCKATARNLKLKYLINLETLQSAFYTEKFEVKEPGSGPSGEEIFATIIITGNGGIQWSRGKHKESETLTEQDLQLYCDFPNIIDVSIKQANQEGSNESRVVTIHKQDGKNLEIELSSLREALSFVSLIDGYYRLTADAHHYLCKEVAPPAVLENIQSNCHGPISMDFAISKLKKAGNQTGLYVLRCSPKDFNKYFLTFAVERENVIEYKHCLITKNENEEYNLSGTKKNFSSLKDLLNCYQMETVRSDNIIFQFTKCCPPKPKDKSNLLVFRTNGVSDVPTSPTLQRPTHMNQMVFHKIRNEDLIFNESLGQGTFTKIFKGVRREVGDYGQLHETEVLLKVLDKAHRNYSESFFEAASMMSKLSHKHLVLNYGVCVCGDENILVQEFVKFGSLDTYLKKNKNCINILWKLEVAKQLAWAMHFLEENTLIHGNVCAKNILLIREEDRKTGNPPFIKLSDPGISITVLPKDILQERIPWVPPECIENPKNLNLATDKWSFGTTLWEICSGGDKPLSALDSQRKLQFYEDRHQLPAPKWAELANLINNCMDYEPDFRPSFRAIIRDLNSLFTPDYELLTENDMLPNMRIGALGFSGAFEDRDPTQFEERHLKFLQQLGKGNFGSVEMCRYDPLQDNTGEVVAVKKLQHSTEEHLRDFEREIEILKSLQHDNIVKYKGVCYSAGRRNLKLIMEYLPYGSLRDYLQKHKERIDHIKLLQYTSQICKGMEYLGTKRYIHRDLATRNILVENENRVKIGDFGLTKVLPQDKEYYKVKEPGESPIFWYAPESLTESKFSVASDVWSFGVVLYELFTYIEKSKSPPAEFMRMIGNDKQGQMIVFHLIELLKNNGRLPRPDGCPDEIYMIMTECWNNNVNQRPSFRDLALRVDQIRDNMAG
JAK1, sequence (P23458 whole entry): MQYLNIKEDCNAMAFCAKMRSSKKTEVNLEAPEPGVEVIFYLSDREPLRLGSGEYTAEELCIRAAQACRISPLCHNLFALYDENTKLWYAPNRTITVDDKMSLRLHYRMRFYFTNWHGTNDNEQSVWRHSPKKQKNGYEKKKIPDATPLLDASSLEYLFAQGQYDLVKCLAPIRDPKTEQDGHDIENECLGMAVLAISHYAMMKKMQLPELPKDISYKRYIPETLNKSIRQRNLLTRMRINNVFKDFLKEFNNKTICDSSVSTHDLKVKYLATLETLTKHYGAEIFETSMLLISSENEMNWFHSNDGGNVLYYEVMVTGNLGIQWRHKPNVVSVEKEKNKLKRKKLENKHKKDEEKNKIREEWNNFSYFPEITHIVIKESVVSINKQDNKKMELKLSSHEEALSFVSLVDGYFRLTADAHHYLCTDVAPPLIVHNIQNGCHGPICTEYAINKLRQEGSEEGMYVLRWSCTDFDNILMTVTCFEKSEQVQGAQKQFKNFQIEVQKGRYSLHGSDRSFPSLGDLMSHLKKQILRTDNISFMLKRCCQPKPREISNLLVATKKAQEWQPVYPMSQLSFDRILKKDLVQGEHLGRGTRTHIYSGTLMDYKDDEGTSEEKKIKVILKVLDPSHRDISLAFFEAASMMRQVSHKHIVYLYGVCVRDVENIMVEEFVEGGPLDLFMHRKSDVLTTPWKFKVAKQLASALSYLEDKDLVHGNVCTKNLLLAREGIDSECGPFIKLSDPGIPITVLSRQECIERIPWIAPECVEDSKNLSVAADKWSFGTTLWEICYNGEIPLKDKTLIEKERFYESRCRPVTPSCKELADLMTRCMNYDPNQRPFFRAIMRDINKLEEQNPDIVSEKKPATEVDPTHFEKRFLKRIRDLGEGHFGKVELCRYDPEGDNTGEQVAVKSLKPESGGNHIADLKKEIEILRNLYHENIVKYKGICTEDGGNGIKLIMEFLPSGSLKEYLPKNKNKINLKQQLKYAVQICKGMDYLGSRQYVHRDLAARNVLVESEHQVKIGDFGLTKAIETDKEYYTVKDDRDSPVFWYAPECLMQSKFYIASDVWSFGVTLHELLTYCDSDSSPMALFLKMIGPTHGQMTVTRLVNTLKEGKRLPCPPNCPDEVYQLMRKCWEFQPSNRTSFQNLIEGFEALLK
Tyk2, sequence (P29597 whole entry): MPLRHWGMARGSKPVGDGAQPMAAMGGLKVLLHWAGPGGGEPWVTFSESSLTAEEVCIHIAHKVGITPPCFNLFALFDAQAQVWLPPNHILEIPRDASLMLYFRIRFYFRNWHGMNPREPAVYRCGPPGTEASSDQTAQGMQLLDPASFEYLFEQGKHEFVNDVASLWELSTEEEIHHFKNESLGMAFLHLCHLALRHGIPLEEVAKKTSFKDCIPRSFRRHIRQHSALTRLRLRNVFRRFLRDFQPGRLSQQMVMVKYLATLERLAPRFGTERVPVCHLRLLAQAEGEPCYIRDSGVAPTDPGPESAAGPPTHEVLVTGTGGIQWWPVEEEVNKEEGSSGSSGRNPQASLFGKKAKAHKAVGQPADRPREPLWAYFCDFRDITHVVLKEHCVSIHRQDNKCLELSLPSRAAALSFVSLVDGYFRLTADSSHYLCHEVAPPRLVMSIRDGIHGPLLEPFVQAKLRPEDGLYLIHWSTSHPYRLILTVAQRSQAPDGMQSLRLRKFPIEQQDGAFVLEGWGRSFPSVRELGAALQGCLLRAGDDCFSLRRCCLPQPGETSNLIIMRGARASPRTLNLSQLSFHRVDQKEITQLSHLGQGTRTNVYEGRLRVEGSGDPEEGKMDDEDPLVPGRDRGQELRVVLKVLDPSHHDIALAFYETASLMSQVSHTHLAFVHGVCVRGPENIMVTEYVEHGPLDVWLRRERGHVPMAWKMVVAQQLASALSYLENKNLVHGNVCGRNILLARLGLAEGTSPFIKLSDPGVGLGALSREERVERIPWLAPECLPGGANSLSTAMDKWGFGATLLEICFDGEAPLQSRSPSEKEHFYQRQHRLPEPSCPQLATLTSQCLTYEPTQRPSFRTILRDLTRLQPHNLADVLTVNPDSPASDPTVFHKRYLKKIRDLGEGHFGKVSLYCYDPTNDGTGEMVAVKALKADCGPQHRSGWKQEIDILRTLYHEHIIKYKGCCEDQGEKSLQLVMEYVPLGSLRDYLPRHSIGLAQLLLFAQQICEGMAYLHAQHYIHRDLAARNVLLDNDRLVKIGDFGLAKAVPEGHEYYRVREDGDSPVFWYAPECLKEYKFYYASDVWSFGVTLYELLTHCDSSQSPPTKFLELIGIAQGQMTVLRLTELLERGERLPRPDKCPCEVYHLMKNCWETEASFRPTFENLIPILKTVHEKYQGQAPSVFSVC

Compound | THP-1 IL4 pIC50 [1, 3] | JAK 3 (pKi) (JAK3) | JAK 2 (pKi) (JAK2) | JAK 1 (pKi) (JAK1) | THP-1 IL4 pIC50 [1, 6] | further results
Cc1cc(Nc2cc3ncccc3c(N[C@@H]3C[C@H]4CC[C@@H](C3)N4CC(N)=O)n2)n[nH]1 [Example 1-6] | C (C represents a pEC50 value<6.7 (EC50>200 nM)) | C (C represents a pKi value between 7 and 9 (Ki between 100 nM and 1 nM)) | B (B represents a pKi value between 9 and 10 (Ki between 1 nM and 0.1 nM)) | B (B represents a pKi value between 9 and 10 (Ki between 1 nM and 0.1 nM)) |  | 
Cc1cc(Nc2cc3ncccc3c(N[C@@H]3C[C@H]4CC[C@@H](C3)N4CC(=O)N(C)C)n2)n[nH]1 [Example 1-8] | C (C represents a pEC50 value<6.7 (EC50>200 nM)) | C (C represents a pKi value between 7 and 9 (Ki between 100 nM and 1 nM)) |  | B (B represents a pKi value between 9 and 10 (Ki between 1 nM and 0.1 nM)) |  | 
COC(=O)CCN1[C@@H]2CCC[C@H]1C[C@H](Nc1nc(Nc3cc(C)[nH]n3)cc3ncccc13)C2 [Example 1-33] | C (C represents a pEC50 value<6.7 (EC50>200 nM)) | C (C represents a pKi value between 7 and 9 (Ki between 100 nM and 1 nM)) | B (B represents a pKi value between 9 and 10 (Ki between 1 nM and 0.1 nM)) | B (B represents a pKi value between 9 and 10 (Ki between 1 nM and 0.1 nM)) |  | 
Cc1cc(Nc2cc3ncccc3c(N[C@@H]3C[C@H]4CCC[C@@H](C3)N4CC(=O)N[C@@H]3CCOC3=O)n2)n[nH]1 [Example 1-41] | C (C represents a pEC50 value<6.7 (EC50>200 nM)) | B (B represents a pKi value between 9 and 10 (Ki between 1 nM and 0.1 nM)) | A (A represents a pKi value≥10 (Ki≤0.1 nM)) |  |  | 
Cc1cc(Nc2cc3ncccc3c(N[C@@H]3C[C@H]4CCC[C@@H](C3)N4CC(=O)N[C@H]3CCOC3=O)n2)n[nH]1 [Example 1-42] | C (C represents a pEC50 value<6.7 (EC50>200 nM)) | B (B represents a pKi value between 9 and 10 (Ki between 1 nM and 0.1 nM)) | A (A represents a pKi value≥10 (Ki≤0.1 nM)) |  |  | 
Cc1cc(Nc2cc3ncccc3c(N[C@@H]3C[C@H]4CC[C@@H](C3)N4C(=O)CN(C)C)n2)n[nH]1 [Example 2-5] | C (C represents a pEC50 value<6.7 (EC50>200 nM)) | C (C represents a pKi value between 7 and 9 (Ki between 100 nM and 1 nM)) |  | B (B represents a pKi value between 9 and 10 (Ki between 1 nM and 0.1 nM)) |  | 
Cc1cc(Nc2cc3ncccc3c(N[C@@H]3C[C@H]4CCC[C@@H](C3)N4S(=O)(=O)C3CNC3)n2)n[nH]1 [Example 4-21] | C (C represents a pEC50 value<6.7 (EC50>200 nM)) | C (C represents a pKi value between 7 and 9 (Ki between 100 nM and 1 nM)) | B (B represents a pKi value between 9 and 10 (Ki between 1 nM and 0.1 nM)) |  |  | 
COc1ccc2c(N[C@@H]3C[C@H]4CC[C@@H](C3)N4CC(F)(F)F)nc(Nc3cc(C)[nH]n3)cc2n1 [Example 5-1] |  |  |  |  |  | IC50 [1, 4]: < 31.6 nM; Ki (JAK2): 0.1 to 1 nM; IC50 [2, 5]: < 31.6 nM; Ki (Tyk2): 0.1 to 1 nM; Ki (JAK1): 0.1 to 1 nM
COc1ccc2c(N[C@@H]3C[C@H]4CC[C@@H](C3)N4CCF)nc(Nc3cc(C)[nH]n3)cc2n1 [Example 5-3] | B (B represents a pEC50 value between 6.7 and 7.5 (EC50 between 200 nM and 32 nM)) | C (C represents a pKi value between 7 and 9 (Ki between 100 nM and 1 nM)) |  | B (B represents a pKi value between 9 and 10 (Ki between 1 nM and 0.1 nM)) |  | 
COc1ccc2c(N[C@@H]3C[C@H]4CC[C@@H](C3)N4CCC#N)nc(Nc3cc(C)[nH]n3)cc2n1 [Example 5-8] | A (A represents a pEC50 value≥7.5 (EC50≤32 nM)) |  | B (B represents a pKi value between 9 and 10 (Ki between 1 nM and 0.1 nM)) | B (B represents a pKi value between 9 and 10 (Ki between 1 nM and 0.1 nM)) |  | BEAS2B pIC50 ([2]; IL-13 induced STAT6 phosphorylation, BEAS-2B cells): A (A represents a pEC50 value≥7.5 (EC50≤32 nM)); Tyk 2 (pKi) (Tyk2): B (B represents a pKi value between 9 and 10 (Ki between 1 nM and 0.1 nM))
COc1ccc2c(N[C@@H]3C[C@H]4CC[C@@H](C3)N4S(C)(=O)=O)nc(Nc3cc(C)[nH]n3)cc2n1 [Example 5-9] |  |  |  |  |  | IC50 [1, 4]: < 31.6 nM; Ki (JAK2): 0.1 to 1 nM; IC50 [2, 5]: < 31.6 nM; Ki (Tyk2): 0.1 to 1 nM; Ki (JAK1): 0.1 to 1 nM
Cc1cc(Nc2cc3nc(CN4CCOCC4)ccc3c(N[C@@H]3C[C@H]4CC[C@@H](C3)N4S(=O)(=O)c3cncc(F)c3)n2)n[nH]1 [Example 5-20] |  |  |  |  |  | IC50 [1, 4]: < 31.6 nM; Ki (JAK2): 0.1 to 1 nM; IC50 [2, 5]: 31.6 to 200 nM; Ki (Tyk2): 0.1 to 1 nM; Ki (JAK1): 0.1 to 1 nM
Cc1cc(Nc2cc3nc(CN4CCN(C)CC4)ccc3c(N[C@@H]3C[C@H]4CC[C@@H](C3)N4CCC#N)n2)n[nH]1 [Example 5-37] | B (B represents a pEC50 value between 6.7 and 7.5 (EC50 between 200 nM and 32 nM)) | B (B represents a pKi value between 9 and 10 (Ki between 1 nM and 0.1 nM)) |  |  |  | 
Cc1cc(Nc2cc3nc(CN4CCN(C)CC4)ccc3c(N[C@@H]3C[C@H]4CC[C@@H](C3)N4CC(C)C)n2)n[nH]1 [Example 5-38] |  | C (C represents a pKi value between 7 and 9 (Ki between 100 nM and 1 nM)) |  |  |  | 
COc1cnc2cc(Nc3cc(C)[nH]n3)nc(N[C@@H]3C[C@H]4CC[C@@H](C3)N4CCF)c2c1 [Example 6-13] |  | C (C represents a pKi value between 7 and 9 (Ki between 100 nM and 1 nM)) |  | B (B represents a pKi value between 9 and 10 (Ki between 1 nM and 0.1 nM)) | B (B represents a pEC50 value between 6.7 and 7.5 (EC50 between 200 nM and 32 nM)) | 
C=CCOC(=O)N1[C@@H]2CC[C@H]1C[C@H](Nc1nc(Nc3cc(C)[nH]n3)cc3ncc(OC)cc13)C2 [Example 6-19] |  | C (C represents a pKi value between 7 and 9 (Ki between 100 nM and 1 nM)) |  | B (B represents a pKi value between 9 and 10 (Ki between 1 nM and 0.1 nM)) | B (B represents a pEC50 value between 6.7 and 7.5 (EC50 between 200 nM and 32 nM)) | 
COc1cnc2cc(Nc3cc(C)[nH]n3)nc(N[C@@H]3C[C@H]4CCC[C@@H](C3)N4S(C)(=O)=O)c2c1 [Example 6-29] |  |  | B (B represents a pKi value between 9 and 10 (Ki between 1 nM and 0.1 nM)) | B (B represents a pKi value between 9 and 10 (Ki between 1 nM and 0.1 nM)) | A (A represents a pEC50 value≥7.5 (EC50≤32 nM)) | BEAS2B pIC50 [2, 7]: A (A represents a pEC50 value≥7.5 (EC50≤32 nM)); Tyk 2 (pKi) (Tyk2): B (B represents a pKi value between 9 and 10 (Ki between 1 nM and 0.1 nM))
COc1cnc2cc(Nc3cc(C)[nH]n3)nc(N[C@@H]3C[C@H]4CCC[C@@H](C3)N4CCC#N)c2c1 [Example 6-31] |  |  | B (B represents a pKi value between 9 and 10 (Ki between 1 nM and 0.1 nM)) | B (B represents a pKi value between 9 and 10 (Ki between 1 nM and 0.1 nM)) | A (A represents a pEC50 value≥7.5 (EC50≤32 nM)) | BEAS2B pIC50 [2, 7]: A (A represents a pEC50 value≥7.5 (EC50≤32 nM)); Tyk 2 (pKi) (Tyk2): B (B represents a pKi value between 9 and 10 (Ki between 1 nM and 0.1 nM))
Cc1cc(Nc2cc3ncc(S(C)(=O)=O)cc3c(N[C@@H]3C[C@H]4CC[C@@H](C3)N4CCC(F)(F)F)n2)n[nH]1 [Example 6-56] |  |  | A (A represents a pKi value≥10 (Ki≤0.1 nM)) | B (B represents a pKi value between 9 and 10 (Ki between 1 nM and 0.1 nM)) | B (B represents a pEC50 value between 6.7 and 7.5 (EC50 between 200 nM and 32 nM)) | BEAS2B pIC50 [2, 7]: B (B represents a pEC50 value between 6.7 and 7.5 (EC50 between 200 nM and 32 nM)); Tyk 2 (pKi) (Tyk2): B (B represents a pKi value between 9 and 10 (Ki between 1 nM and 0.1 nM))
Cc1cc(Nc2nc(N[C@@H]3C[C@H]4CC[C@@H](C3)N4C(=O)CN(C)C)c3cccnc3c2F)n[nH]1 [Example 8-7] |  | C (C represents a pKi value between 7 and 9 (Ki between 100 nM and 1 nM)) |  |  | C (C represents a pEC50 value<6.7 (EC50>200 nM)) | 
Cc1cnc2c(F)c(Nc3cc(C)[nH]n3)nc(N[C@@H]3C[C@H]4CCC[C@@H](C3)N4S(=O)(=O)N3CC(C#N)C3)c2c1 [Example 8-23] |  |  | A (A represents a pKi value≥10 (Ki≤0.1 nM)) | B (B represents a pKi value between 9 and 10 (Ki between 1 nM and 0.1 nM)) | B (B represents a pEC50 value between 6.7 and 7.5 (EC50 between 200 nM and 32 nM)) | BEAS2B pIC50 [2, 7]: B (B represents a pEC50 value between 6.7 and 7.5 (EC50 between 200 nM and 32 nM)); Tyk 2 (pKi) (Tyk2): B (B represents a pKi value between 9 and 10 (Ki between 1 nM and 0.1 nM))
